Assay [1] deals with IFNγ-stimulated HEK-Blue IFNγ reporter cells. As to the kind of experiment: HEK-Blue IFNγ reporter assay (STAT1-inducible SEAP) for determining selectivity. It is filed as cell-based. The conditions noted are these: 50 ng/mL human recombinant IFNγ, 24 hours, read-out: IFN-γ SEAP selectivity assay IC50. Put shortly:
(§1)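 Cells were plated for 20-22 h, then pretreated with serially diluted compound for 60 min. They were stimulated for 24 h with 4 ng/mL human recombinant IL-2 or 50 ng/mL human recombinant IFNγ, and SEAP induction was read with QUANTI-Blue.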
On the technique in general: Reporter assays use an easily measured gene product as a stand-in for the process of interest.

For assay [2], the system named is IL-2-stimulated HEK-Blue IL-2 reporter cells. As to the kind of experiment: HEK-Blue IL-2 reporter assay (STAT5-inducible SEAP) for determining selectivity. The following applies: 4 ng/mL human recombinant IL-2, 24 hours. It is filed as cell-based. Put shortly: as §1
A further assay concerns the target T1, TYK2 kinase domain (JH1) (Homo sapiens, UniProt P29597).
T1 construct: recombinant purified His or GST-tagged catalytic domain for each enzyme; made in house
T1 sequence (P29597 897-1176 limits assumed): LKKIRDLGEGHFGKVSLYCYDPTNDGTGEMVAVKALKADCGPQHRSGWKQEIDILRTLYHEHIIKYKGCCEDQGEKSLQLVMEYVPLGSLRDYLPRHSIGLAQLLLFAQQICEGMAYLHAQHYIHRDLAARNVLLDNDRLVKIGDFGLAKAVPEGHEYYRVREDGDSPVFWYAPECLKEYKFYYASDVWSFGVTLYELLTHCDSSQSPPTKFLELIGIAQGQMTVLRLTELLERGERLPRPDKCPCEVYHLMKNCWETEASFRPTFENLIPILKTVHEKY
As to the kind of experiment: HTRF-based selectivity assay, TYK2 catalytic domain. In kind it is biochemical. The conditions noted are these: 20 μM ATP. A general note: Time-resolved FRET reads energy transfer from a long-lived donor to a nearby acceptor.

A further assay addresses T2, JAK1 kinase domain (JH1) (Homo sapiens, UniProt P23458).
T2 construct: recombinant purified His or GST-tagged catalytic domain for each enzyme; made in house
The experiment in a line: HTRF-based selectivity assay, JAK1 catalytic domain. It is filed as biochemical. The conditions noted are these: 21.43 μM ATP, read-out: JAK-JHI (IC50). Put shortly: (§2)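 Recombinant His- or GST-tagged JAK catalytic domains (JAK1 80.6, JAK2 2.1, JAK3 171.8 ng/mL) preincubated with compound 5-20 min at RT, then ATP (JAK1 21.43, JAK2 14.7, JAK3 2.12 μM) plus peptide substrate (454.7, 200, 257.4 nM respectively) added. HEPES buffer with MgCl2, 60 min at 26.5 °C; HTRF read-out.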

The next assay deals with T3, JAK2 kinase domain (JH1) (Homo sapiens, UniProt O60674).
T3 construct: recombinant purified His or GST-tagged catalytic domain for each enzyme; made in house
The experiment in a line: HTRF-based selectivity assay, JAK2 catalytic domain. In kind it is biochemical. The conditions noted are these: 14.7 μM ATP. Put shortly:
as §2

Assay [3] deals with TYK2 pseudokinase (JH2); IFNα-stimulated HEK-Blue IFNα/β cells. The experiment in a line: HEK-Blue IFNα/β reporter assay (STAT1-inducible SEAP) for profiling TYK2 pseudokinase (JH2) inhibition. In kind it is cell-based. The conditions noted are these: 1 ng/mL human recombinant IFNα, SEAP readout, read-out: IFNα (TYK2 inhibitory activity, IC50). Put shortly:
(§3)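 Cells were pretreated 60 min with serially diluted compounds, then stimulated with 10 ng/mL human IL-23 for 22-24 hours (STAT3 line) or 1 ng/mL human IFNα for 16-18 h (STAT1 line). SEAP induction read with QUANTI-Blue.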

The next assay addresses T4, JAK3 kinase domain (JH1) (Homo sapiens, UniProt P52333).
T4 construct: recombinant purified His or GST-tagged catalytic domain for each enzyme; purchased Carna biosciences 08-046
The experiment in a line: HTRF-based selectivity assay, JAK3 catalytic domain. It is filed as biochemical. The following applies: 2.12 μM ATP. The method, then: Example B-2: HTRF-Based Selectivity Assay
The ability of compounds to inhibit the activity of JAK1, JAK2, JAK3 and TYK2 is measured using a recombinant purified His or GST-tagged catalytic domain for each enzyme (JAK1, JAK2 and TYK2 are generated in-house; JAK3 was purchased from Carna biosciences, Cat #08-046) in an HTRF format biochemical assay. The reactions employs a commercial peptide substrate from Cisbio (Cat #62TK0PEC). The basic assay protocol is as follows: first, 2.5 μL of diluted compounds (4×) in DMSO are dispensed into a 384-well Optiplate. Next, 2.5 μL of enzyme (final concentrations for enzymes are: TYK2—700 ng/mL, JAK1—80.6 ng/mL, JAK2—2.1 ng/mL and JAK3—171.8 ng/mL) is added and incubated at RT for 5-20 min. Finally, 5 μl of mixture of 2×ATP [Final concentration 20 μM for TYK2, 21.43 μM for JAK1, 14.7 μM for JAK2 and 2.12 μM for JAK3]+2× Substrate [Final concentration 217 nM for TYK2, 454.7 nM for JAK1, 200 nM for JAK2 and 257.4 nM for JAK3] is added to 384 well Optiplate. Composition of Kinase assay buffer used in the assay is as follows: HEPES 50 mM, EGTA 1 mM, MgCl2 10 mM, DTT 2 mM, Tween-20 0.01% and water. Then the plates are shaken and then incubated at 26.5° C. for 60 min.

In assay [4] the test system is TYK2 pseudokinase (JH2); IL-23-stimulated HEK-Blue IL-23 cells. As to the kind of experiment: HEK-Blue IL-23 reporter assay (STAT3-inducible SEAP) for profiling TYK2 pseudokinase (JH2) inhibition. It is filed as cell-based. The conditions noted are these: 10 ng/mL human recombinant IL-23, SEAP readout, read-out: IL23 (TYK2 inhibitory activity, IC50). Put shortly:
as §3

Molecules are shown by their SMILES. Bounds are passed on as bounds.

T3 sequence (O60674 849-1124 limits assumed): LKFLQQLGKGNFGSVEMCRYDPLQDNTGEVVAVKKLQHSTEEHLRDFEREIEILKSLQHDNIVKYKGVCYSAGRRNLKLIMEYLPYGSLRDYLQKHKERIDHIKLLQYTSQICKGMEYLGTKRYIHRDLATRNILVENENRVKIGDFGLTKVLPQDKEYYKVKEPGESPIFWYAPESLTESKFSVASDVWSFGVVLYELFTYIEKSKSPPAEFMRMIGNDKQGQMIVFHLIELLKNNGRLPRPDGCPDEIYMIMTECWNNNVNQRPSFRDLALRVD
T2 sequence (P23458 875-1153 limits assumed): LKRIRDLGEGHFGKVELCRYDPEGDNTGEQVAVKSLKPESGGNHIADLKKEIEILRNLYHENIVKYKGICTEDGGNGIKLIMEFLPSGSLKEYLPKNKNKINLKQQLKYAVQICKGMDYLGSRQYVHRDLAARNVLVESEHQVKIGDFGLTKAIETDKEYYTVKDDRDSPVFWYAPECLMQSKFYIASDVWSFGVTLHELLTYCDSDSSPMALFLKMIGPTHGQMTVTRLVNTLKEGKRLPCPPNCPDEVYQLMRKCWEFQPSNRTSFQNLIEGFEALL
T4 sequence (P52333 822-1111 limits assumed): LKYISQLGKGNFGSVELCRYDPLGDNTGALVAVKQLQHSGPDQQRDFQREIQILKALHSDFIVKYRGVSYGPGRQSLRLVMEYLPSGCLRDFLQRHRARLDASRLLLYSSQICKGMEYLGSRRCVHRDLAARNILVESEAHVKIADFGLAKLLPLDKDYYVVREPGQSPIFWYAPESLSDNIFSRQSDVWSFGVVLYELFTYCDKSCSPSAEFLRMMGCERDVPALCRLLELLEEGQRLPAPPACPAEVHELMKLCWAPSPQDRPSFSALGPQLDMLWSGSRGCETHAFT

A word on the IC50: it is the concentration that gives 50% inhibition. Consider `[2H]C([2H])([2H])NC(=O)c1cnc(NC(=O)C2(O)CC2)cc1Nc1cccc2c1N(C)Cc1cn(C)nc1-2` [Compound 21, 4-((2,5-dimethyl-4,5-dihydro-2H-pyrazolo[4,3-c]quinolin-6-yl)amino)-6-(1-hydroxycyclopropane-1-carboxamido)-N-(methyl-d3)nicotinamide], for which the half-maximal inhibitory concentration (IC50) in assay [1] is above 1000 nM; in assay [2], above 1000 nM; on TYK2 kinase domain (JH1), above 1000 nM; at JAK1 kinase domain (JH1), above 1000 nM; against JAK2 kinase domain (JH1), above 1000 nM; in assay [3], 30 to 300 nM. For the same molecule, the IC50 against JAK3 kinase domain (JH1) was above 1000 nM; in assay [4], 30 to 300 nM.

Take `[2H]C([2H])([2H])NC(=O)c1cnc(NC(=O)C2CC2)cc1Nc1cccc2c1N(C)Cc1cnn(C)c1-2` [Compound 51, 6-(cyclopropanecarboxamido)-4-((1,5-dimethyl-4,5-dihydro-1H-pyrazolo[4,3-c]quinolin-6-yl)amino)-N-(methyl-d3)nicotinamide]: the IC50 was above 1000 nM in assay [1]; above 1000 nM in assay [2]; above 1000 nM against TYK2 kinase domain (JH1); above 1000 nM on JAK1 kinase domain (JH1); above 1000 nM on JAK2 kinase domain (JH1); 30 to 300 nM in assay [3]. Moreover, the concentration for half-maximal inhibition (IC50) was above 1000 nM against JAK3 kinase domain (JH1) and below 30 nM in assay [4].

As to `CNC(=O)c1nnc(NC(=O)C2CC2)cc1Nc1cccc2c1OCc1cnn(C)c1-2` [Compound 50, 6-(cyclopropanecarboxamido)-N-methyl-4-((1-methyl-1,4-dihydrochromeno[4,3-c]pyrazol-6-yl)amino)pyridazine-3-carboxamide], the IC50 was 300 to 1000 nM in assay [1]; 30 to 300 nM in assay [2]; above 1000 nM against TYK2 kinase domain (JH1); above 1000 nM at JAK1 kinase domain (JH1); above 1000 nM at JAK2 kinase domain (JH1); 300 to 1000 nM in assay [3]. The IC50 is above 1000 nM against JAK3 kinase domain (JH1) and 300 to 1000 nM in assay [4].

`CNC(=O)c1nnc(Nc2ccc(F)cn2)cc1Nc1cccc2c1N(C)Cc1cn(C)nc1-2` [Compound 12, (4-((2,5-dimethyl-4,5-dihydro-2H-pyrazolo[4,3-c]quinolin-6-yl)amino)-6-((5-fluoropyridin-2-yl)amino)-N-methylpyridazine-3-carboxamide)]: the concentration for half-maximal inhibition (IC50) in assay [1] was 30 to 300 nM; in assay [2], above 1000 nM; against TYK2 kinase domain (JH1), above 1000 nM; at JAK1 kinase domain (JH1) it was above 1000 nM; against JAK2 kinase domain (JH1), above 1000 nM; in assay [3], below 30 nM. Also, the half-maximal inhibitory concentration (IC50) was above 1000 nM against JAK3 kinase domain (JH1) and below 30 nM in assay [4].

Regarding `[2H]C([2H])([2H])NC(=O)c1cnc(NC(=O)C2CC2)cc1Nc1cccc2c1N(C)Cc1cn(C)nc1-2` [Compound 14, 6-(cyclopropanecarboxamido)-4-((2,5-dimethyl-4,5-dihydro-2H-pyrazolo[4,3-c]quinolin-6-yl)amino)-N-(methyl-d3)nicotinamide], the IC50 in assay [1] was 300 to 1000 nM; in assay [2] it was above 1000 nM; on TYK2 kinase domain (JH1), above 1000 nM; at JAK1 kinase domain (JH1), above 1000 nM; on JAK2 kinase domain (JH1), above 1000 nM; in assay [3] it was below 30 nM. Further, the IC50 at JAK3 kinase domain (JH1) was above 1000 nM; in assay [4], below 30 nM.

As for `[2H]C([2H])([2H])NC(=O)c1cnc(Nc2cc(C)nc(C)n2)cc1Nc1cccc2c1N(C)Cc1cn(C)nc1-2` [Compound 16, 4-((2,5-dimethyl-4,5-dihydro-2H-pyrazolo[4,3-c]quinolin-6-yl)amino)-6-((2,6-dimethylpyrimidin-4-yl)amino)-N-(methyl-d3)nicotinamide], the IC50 in assay [1] was 30 to 300 nM; in assay [2] it was 300 to 1000 nM; against TYK2 kinase domain (JH1) it was above 1000 nM; on JAK1 kinase domain (JH1) it was above 1000 nM; against JAK2 kinase domain (JH1), above 1000 nM; in assay [3] it was below 30 nM. The values for the IC50 (against JAK3 kinase domain (JH1); in assay [4]) were above 1000 nM and below 30 nM, respectively.

As to `[2H]C([2H])([2H])NC(=O)c1cnc(N2CCN(C(C)C)C2=O)cc1Nc1cccc2c1N(C)Cc1cn(C)nc1-2` [Compound 61, 4-((2,5-dimethyl-4,5-dihydro-2H-pyrazolo[4,3-c]quinolin-6-yl)amino)-6-(3-isopropyl-2-oxoimidazolidin-1-yl)-N-(methyl-d3)nicotinamide], the IC50 in assay [1] was above 1000 nM; in assay [2] it was above 1000 nM; at TYK2 kinase domain (JH1) it was above 1000 nM; at JAK1 kinase domain (JH1) it was above 1000 nM; on JAK2 kinase domain (JH1), above 1000 nM; in assay [3] it was 30 to 300 nM. Moreover, the figures for the half-maximal inhibitory concentration (IC50) (on JAK3 kinase domain (JH1); in assay [4]) were above 1000 nM and below 30 nM, respectively.

As to `[2H]C([2H])([2H])NC(=O)c1cnc(NC(=O)C2CC2)nc1Nc1cccc2c1N(C)Cc1cn(C)nc1-2` [Compound 22, 2-(cyclopropanecarboxamido)-4-((2,5-dimethyl-4,5-dihydro-2H-pyrazolo[4,3-c]quinolin-6-yl)amino)-N-(methyl-d3)pyrimidine-5-carboxamide], the IC50 was above 1000 nM in assay [1]; above 1000 nM in assay [2]; above 1000 nM against TYK2 kinase domain (JH1); above 1000 nM at JAK1 kinase domain (JH1); above 1000 nM against JAK2 kinase domain (JH1); below 30 nM in assay [3]. In addition, the half-maximal inhibitory concentration (IC50) on JAK3 kinase domain (JH1) was above 1000 nM; in assay [4], below 30 nM.

In the case of `CNC(=O)c1nnc(Nc2ccc(F)cn2)cc1Nc1cccc2c1OCc1cn(C)nc1-2` [Compound 1, 6-((5-fluoropyridin-2-yl)amino)-N-methyl-4-((2-methyl-2,4-dihydrochromeno[4,3-c]pyrazol-6-yl)amino)pyridazine-3-carboxamide], the IC50 in assay [1] is 300 to 1000 nM; in assay [2] it was 300 to 1000 nM; on TYK2 kinase domain (JH1), 300 to 1000 nM; on JAK1 kinase domain (JH1), above 1000 nM; at JAK2 kinase domain (JH1), above 1000 nM; in assay [3], 30 to 300 nM. Also, the IC50 against JAK3 kinase domain (JH1) was above 1000 nM; in assay [4], 30 to 300 nM.

`[2H]C([2H])([2H])NC(=O)c1cnc(NC(=O)C2CC2)cc1Nc1cccc2c1OCc1cn(C)nc1-2` [Compound 6, 6-(cyclopropanecarboxamido)-N-(methyl-d3)-4-((2-methyl-2,4-dihydrochromeno[4,3-c]pyrazol-6-yl)amino)nicotinamide]: the IC50 in assay [1] was above 1000 nM; in assay [2], above 1000 nM; at TYK2 kinase domain (JH1), above 1000 nM; on JAK1 kinase domain (JH1) it was above 1000 nM; against JAK2 kinase domain (JH1) it was above 1000 nM; in assay [3], 30 to 300 nM. Moreover, the IC50 against JAK3 kinase domain (JH1) was above 1000 nM; in assay [4] it was 30 to 300 nM.

As for `COC(=O)c1cnc(NC(=O)C2CC2)cc1Nc1cccc2c1N(C)Cc1cn(C)nc1-2` [Compound 60, methyl 6-(cyclopropanecarboxamido)-4-((2,5-dimethyl-4,5-dihydro-2H-pyrazolo[4,3-c]quinolin-6-yl)amino)nicotinate], the half-maximal inhibitory concentration (IC50) in assay [1] is above 1000 nM; in assay [2] it was above 1000 nM; against TYK2 kinase domain (JH1), above 1000 nM; on JAK1 kinase domain (JH1) it was above 1000 nM; against JAK2 kinase domain (JH1), above 1000 nM; in assay [3], below 30 nM. For the same molecule, the figures for the IC50 (at JAK3 kinase domain (JH1); in assay [4]) were above 1000 nM and below 30 nM, respectively.

(Values after patent US12122785B2, “Substituted pyridines, pyridazines, pyrimidines, and 1,2,4-triazines as TYK2 inhibitors” (Sudo Biosciences Limited, priority 2021, dated 2024).)
